According to US20100298141A1, “SUBSTITUTED PYRIDINE N-OXIDE HERBICIDES” (E. I. DU PONT DE NEMOURS AND COMPANY, priority 2007, published 2010):

Assays:
crabgrass = assay: Test C pre-/postemergence test; type: in vivo, Digitaria sanguinalis
How it was run: (§1)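 Seeds were planted and treated preemergence with test chemical in a non-phytotoxic solvent mixture containing surfactant. Postemergence applications of the same formulation went onto plants 2 to 18 cm tall (1- to 4-leaf stage). A dash marks no test result.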

eastern black nightshade = assay: Test C pre-/postemergence test; type: in vivo, Solanum ptycanthum
How it was run: as §1

rice = assay: Test C flooded paddy test; type: in vivo, Oryza sativa; details: Flood
How it was run: (§2)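 Visual injury ratings against untreated controls, taken 13 to 15 days after compound was added to paddy water standing 3 cm above the soil.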

wild oat = assay: Test C pre-/postemergence test; type: in vivo, Avena fatua
How it was run: as §1

bermudagrass = assay: Test C pre-/postemergence test; type: in vivo, Cynodon dactylon
How it was run: as §1

blackgrass = assay: Test C pre-/postemergence test; type: in vivo, Alopecurus myosuroides
How it was run: as §1

velvetleaf = assay: Test C pre-/postemergence test; type: in vivo, Abutilon theophrasti
How it was run: as §1

[1] = system: common (oilseed) sunflower; assay: Test C pre-/postemergence test; type: in vivo, Helianthus annuus
How it was run: as §1

redroot pigweed = assay: Test A pre-/postemergence greenhouse test; type: in vivo, Amaranthus retroflexus; details: for Pigweed plant response rating: 0 to 100 scale; for Plant response rating, Pigweed: 0 to 100 scale where 0 is no effect and 100 is complete control
How it was run: (§3)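 Test compounds in non-phytotoxic solvent with surfactant were applied as a preemergence soil spray to seeded loam/sand pots and, concurrently, postemergence to plants at 2–10 cm, one- to two-leaf stage. About ten days in greenhouse, then injury visually rated against untreated controls.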

pigweed = assay: Test C pre-/postemergence test; type: in vivo, Amaranthus retroflexus
How it was run: as §1

catchweed bedstraw = assay: Test C pre-/postemergence test; type: in vivo, Galium aparine
Description: Seeds of plant species selected from blackgrass (Alopecurus myosuroides), downy brome (Bromus tectorum), green foxtail (Setaria viridis), Italian ryegrass (Lolium multiflorum), wheat (Triticum aestivum), wild oat (Avena fatua), catchweed bedstraw (Galium aparine), Russian thistle (Salsola kali), […] (Cynodon dactylon), Surinam grass (Brachiaria decumbens), cocklebur (Xanthium strumarium), corn (Zea mays), crabgrass (Digitaria sanguinalis), woolly cupgrass (Eriochloa villosa), giant foxtail (Setaria faberii), Goosegrass (Eleusin indica), johnsongrass (Sorghum halepense), kochia (Kochia scoparia), lambsquarters (Chenopodium album), morningglory (Ipomoea coccinea), eastern black nightshade (Solanum ptycanthum), yellow nutsedge (Cyperus esculentus), pigweed (Amaranthus retroflexus), common ragweed (Ambrosia elation), soybean (Glycine max), common (oilseed) sunflower (Helianthus annuus), and velvetleaf (Abutilon theophrasti) were planted and treated preemergence with test chemicals formulated in a non-phytotoxic solvent mixture which included a surfactant. At the same time, plants selected from these crop and weed species and also winter barley (Hordeum vulgare), canarygrass (Phalaris minor), and chickweed (Stellaria media) were treated with postemergence applications of some of the test chemicals formulated in the same manner. Plants ranged in height from 2 to 18 cm (1- to 4-leaf stage) for postemergence treatments. […] At time of treatment, test pots were flooded to 3 cm above the soil surface, treated by application of test compounds directly to the paddy water, and then maintained at that water depth for the duration of the test. […] A dash (-) response means no test result.

duck salad = assay: Test C flooded paddy test; type: in vivo, Heteranthera limosa; details: Flood
How it was run: as §2

Surinam grass = assay: Test C pre-/postemergence test; type: in vivo, Brachiaria decumbens
How it was run: as §1

barnyardgrass = assay: Test C flooded paddy test; type: in vivo, Echinochloa crus-galli; details: Flood
How it was run: as §2

wheat = assay: Test C pre-/postemergence test; type: in vivo, Triticum aestivum
How it was run: as §1

corn = assay: Test A pre-/postemergence greenhouse test; type: in vivo, Zea mays; details: for Corn plant response rating: 0 to 100 scale; for Plant response rating, Corn: 0 to 100 scale where 0 is no effect and 100 is complete control
How it was run: as §3

[2] = 62 g ai/ha, Preemergence, scale 0 to 100
[3] = 125 g ai/ha, preemergence, scale 0 (no effect) to 100 (complete control)
[4] = Preemergence, 31 g ai/ha, scale 0 to 100 (0 no effect, 100 complete control)
[5] = preemergence, 250 g ai/ha, scale 0 (no effect) to 100 (complete control)
[6] = 31 g ai/ha, scale 0 to 100 (0 no effect, 100 complete control)
[7] = 62 g ai/ha, scale 0 to 100, 0 no effect, 100 complete control, 13 to 15 days
[8] = 125 g ai/ha, scale 0 to 100, 0 no effect, 100 complete control, 13 to 15 days
[9] = 250 g ai/ha, scale 0 to 100, 0 no effect, 100 complete control, 13 to 15 days
[10] = Postemergence, 125 g ai/ha, 0 is no effect, 100 is complete control
[11] = Postemergence, 500 g ai/ha, 0 is no effect, 100 is complete control
[12] = Preemergence, 125 g ai/ha, 0 no effect, 100 complete control
[13] = 31 g ai/ha, Preemergence, scale 0 to 100
[14] = 62 g ai/ha, preemergence, scale 0 (no effect) to 100 (complete control)
[15] = preemergence, 125 g ai/ha, scale 0 (no effect) to 100 (complete control)
[16] = 250 g ai/ha, scale 0 to 100 (0 no effect, 100 complete control)

Cn1nc(C(F)(F)F)c(C[S+]([O-])c2cc(Br)cc[n+]2[O-])c1Cl (racemic) [Compound 35] was tested, and the “Crabgrass, Large plant response rating” value (crabgrass; [2]) was 100, the “Crabgrass, Large plant response rating” value (crabgrass; [3]) was 100 and the “Plant response rating, Crabgrass, Large” value (crabgrass; [4]) was 85. For the same molecule, the “Crabgrass, Large plant response rating” value (crabgrass; [5]) was 100, the “Nightshade plant response rating” value (eastern black nightshade; [2]) was 100 and the “Nightshade plant response rating” value (eastern black nightshade; [3]) was 100. The “Plant response rating, Nightshade” value (eastern black nightshade; [4]) was 0, the “Nightshade plant response rating” value (eastern black nightshade; [5]) was 100 and the “Plant response rating, Rice” value (rice; [6]) was 0. The “Plant response rating, Rice” value (rice; [7]) was 0, the “Plant response rating, Rice” value (rice; [8]) was 0 and the “Plant response rating, Rice” value (rice; [9]) was 20. The “Oat, Wild plant response rating” value (wild oat; [2]) was 45, the “Oat, Wild plant response rating” value (wild oat; [3]) was 80 and the “Plant response rating, Oat, Wild” value (wild oat; [4]) was 10. The “Oat, Wild plant response rating” value (wild oat; [5]) was 90, the “Bermudagrass plant response rating” value (bermudagrass; 62 g ai/ha, Preemergence, scale 0 to 100 (0 no effect, 100 complete control)) was 100 and the “Bermudagrass plant response rating” value (bermudagrass; [3]) was 100. The “Plant response rating, Bermudagrass” value (bermudagrass; [4]) was 90, the “Bermudagrass plant response rating” value (bermudagrass; [5]) was 100 and the “Blackgrass plant response rating” value (blackgrass; [2]) was 0. The “Plant response rating, Blackgrass” value (blackgrass; [4]) was 0, the “Blackgrass plant response rating” value (blackgrass; [5]) was 50 and the “Velvetleaf plant response rating” value (velvetleaf; [2]) was 100. The “Velvetleaf plant response rating” value (velvetleaf; [3]) was 100, the “Plant response rating, Velvetleaf” value (velvetleaf; [4]) was 55 and the “Velvetleaf plant response rating” value (velvetleaf; [5]) was 100. For the same molecule, the “Sunflower plant response rating” value [1, 2] was 0, the “Sunflower plant response rating” value [1, 3] was 0 and the “Plant response rating, Sunflower” value [1, 4] was 0. The “Sunflower plant response rating” value [1, 5] was 30, the “Pigweed plant response rating” value (redroot pigweed; [10]) was 60 and the “Pigweed plant response rating” value (redroot pigweed; [11]) was 80. The “Pigweed plant response rating” value (redroot pigweed; [12]) was 100, the “Plant response rating, Pigweed” value (redroot pigweed; Preemergence, 500 g ai/ha) was 100 and the “Pigweed plant response rating” value (pigweed; [2]) was 100. For the same molecule, the “Pigweed plant response rating” value (pigweed; [3]) was 100, the “Plant response rating, Pigweed” value (pigweed; [4]) was 100 and the “Pigweed plant response rating” value (pigweed; [5]) was 100. For the same molecule, the “Galium plant response rating” value (catchweed bedstraw; [2]) was 100, the “Galium plant response rating” value (catchweed bedstraw; [3]) was 100 and the “Plant response rating, Galium” value (catchweed bedstraw; [4]) was 0. The “Galium plant response rating” value (catchweed bedstraw; [5]) was 100, the “Plant response rating, Ducksalad” value (duck salad; [6]) was 60 and the “Plant response rating, Ducksalad” value (duck salad; [7]) was 60. The “Plant response rating, Ducksalad” value (duck salad; [8]) was 85, the “Plant response rating, Ducksalad” value (duck salad; [9]) was 95 and the “Surinam Grass plant response rating” value (Surinam grass; [2]) was 55. For the same molecule, the “Surinam Grass plant response rating” value (Surinam grass; [3]) was 100, the “Plant response rating, Surinam Grass” value (Surinam grass; [4]) was 30 and the “Surinam Grass plant response rating” value (Surinam grass; [5]) was 100. The “Plant response rating, Barnyardgrass” value (barnyardgrass; [6]) was 0, the “Plant response rating, Barnyardgrass” value (barnyardgrass; [7]) was 0 and the “Plant response rating, Barnyardgrass” value (barnyardgrass; [8]) was 20. For the same molecule, the “Plant response rating, Barnyardgrass” value (barnyardgrass; [9]) was 40, the “Wheat plant response rating” value (wheat; [2]) was 25 and the “Wheat plant response rating” value (wheat; [3]) was 25. For the same molecule, the “Plant response rating, Wheat” value (wheat; [4]) was 0, the “Wheat plant response rating” value (wheat; [5]) was 25 and the “Corn plant response rating” value (corn; [10]) was 0. The “Corn plant response rating” value (corn; [11]) was 30, the “Corn plant response rating” value (corn; [12]) was 0 and the “Plant response rating, Corn” value (corn; Preemergence, 500 g ai/ha) was 0.
Cn1nc(C(F)(F)F)c(CS(=O)(=O)c2ccc(Cl)c[n+]2[O-])c1OC(F)F [Compound 7] was tested, and the “Crabgrass, Large plant response rating” value (crabgrass; [13]) was 100, the “Crabgrass, Large plant response rating” value (crabgrass; [14]) was 100 and the “Plant response rating (0 to 100), Crabgrass, Large” value (crabgrass; Preemergence, 250 g ai/ha) was 100. For the same molecule, the “Crabgrass, Large plant response rating” value (crabgrass; [15]) was 100, the “Nightshade plant response rating” value (eastern black nightshade; [13]) was 0 and the “Nightshade plant response rating” value (eastern black nightshade; [14]) was 50. The “Plant response rating (0 to 100), Nightshade” value (eastern black nightshade; Preemergence, 250 g ai/ha) was 95, the “Nightshade plant response rating” value (eastern black nightshade; [15]) was 50 and the “Plant response rating, Rice” value (rice; [6]) was 0. The “Plant response rating, Rice” value (rice; [7]) was 0, the “Plant response rating, Rice” value (rice; [8]) was 15 and the “Plant response rating, Rice” value (rice; [16]) was 15. The “Oat, Wild plant response rating” value (wild oat; [13]) was 0, the “Oat, Wild plant response rating” value (wild oat; [14]) was 30 and the “Plant response rating (0 to 100), Oat, Wild” value (wild oat; Preemergence, 250 g ai/ha) was 70. For the same molecule, the “Oat, Wild plant response rating” value (wild oat; [15]) was 40, the “Bermudagrass plant response rating” value (bermudagrass; [13]) was 100 and the “Bermudagrass plant response rating” value (bermudagrass; [14]) was 100. For the same molecule, the “Plant response rating (0 to 100), Bermudagrass” value (bermudagrass; Preemergence, 250 g ai/ha) was 100, the “Bermudagrass plant response rating” value (bermudagrass; [15]) was 100 and the “Blackgrass plant response rating” value (blackgrass; [13]) was 70. For the same molecule, the “Blackgrass plant response rating” value (blackgrass; [14]) was 70, the “Plant response rating (0 to 100), Blackgrass” value (blackgrass; Preemergence, 250 g ai/ha) was 100 and the “Blackgrass plant response rating” value (blackgrass; [15]) was 85. For the same molecule, the “Velvetleaf plant response rating” value (velvetleaf; [14]) was 0, the “Plant response rating (0 to 100), Velvetleaf” value (velvetleaf; Preemergence, 250 g ai/ha) was 0 and the “Velvetleaf plant response rating” value (velvetleaf; [15]) was 0. For the same molecule, the “Sunflower plant response rating” value [1, 14] was 0, the “Plant response rating (0 to 100), Sunflower” value ([1]; Preemergence, 250 g ai/ha) was 0 and the “Sunflower plant response rating” value [1, 15] was 0. For the same molecule, the “Pigweed plant response rating” value (redroot pigweed; [10]) was 60, the “Pigweed plant response rating” value (redroot pigweed; [11]) was 70 and the “Pigweed plant response rating” value (redroot pigweed; [12]) was 100. For the same molecule, the “Plant response rating, Pigweed” value (redroot pigweed; Preemergence, 500 g ai/ha) was 100, the “Pigweed plant response rating” value (pigweed; [13]) was 100 and the “Pigweed plant response rating” value (pigweed; [14]) was 100. For the same molecule, the “Plant response rating (0 to 100), Pigweed” value (pigweed; Preemergence, 250 g ai/ha) was 100, the “Pigweed plant response rating” value (pigweed; [15]) was 100 and the “Galium plant response rating” value (catchweed bedstraw; [13]) was 40. For the same molecule, the “Galium plant response rating” value (catchweed bedstraw; [14]) was 85, the “Plant response rating (0 to 100), Galium” value (catchweed bedstraw; Preemergence, 250 g ai/ha) was 95 and the “Galium plant response rating” value (catchweed bedstraw; [15]) was 90. The “Plant response rating, Ducksalad” value (duck salad; [6]) was 30, the “Plant response rating, Ducksalad” value (duck salad; [7]) was 50 and the “Plant response rating, Ducksalad” value (duck salad; [8]) was 75. For the same molecule, the “Plant response rating, Ducksalad” value (duck salad; [16]) was 80, the “Surinam Grass plant response rating” value (Surinam grass; [14]) was 20 and the “Plant response rating (0 to 100), Surinam Grass” value (Surinam grass; Preemergence, 250 g ai/ha) was 70. The “Surinam Grass plant response rating” value (Surinam grass; [15]) was 30, the “Plant response rating, Barnyardgrass” value (barnyardgrass; [6]) was 0 and the “Plant response rating, Barnyardgrass” value (barnyardgrass; [7]) was 0. For the same molecule, the “Plant response rating, Barnyardgrass” value (barnyardgrass; [8]) was 0, the “Plant response rating, Barnyardgrass” value (barnyardgrass; [16]) was 20 and the “Wheat plant response rating” value (wheat; [14]) was 10. For the same molecule, the “Plant response rating (0 to 100), Wheat” value (wheat; Preemergence, 250 g ai/ha) was 30, the “Wheat plant response rating” value (wheat; [15]) was 20 and the “Corn plant response rating” value (corn; [11]) was 20. The “Plant response rating, Corn” value (corn; Preemergence, 500 g ai/ha) was 30.
